BindingDB's records for doi:10.1016/s0960-894x(03)00532-8 (British Biotech Pharmaceuticals, 2003)

Target: Peptide deformylase (Escherichia coli) (UniProt P0A6K3)
Assay: Inhibition against Escherichia coli peptide deformylase

Peptide deformylase (Escherichia coli), sequence (P0A6K3 whole entry, looked up): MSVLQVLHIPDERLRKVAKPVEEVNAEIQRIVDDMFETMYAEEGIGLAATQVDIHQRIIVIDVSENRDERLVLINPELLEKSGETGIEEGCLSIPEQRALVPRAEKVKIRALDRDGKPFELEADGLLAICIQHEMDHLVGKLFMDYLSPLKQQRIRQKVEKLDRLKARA

Row | SMILES | IC50
1 | CCCC[C@@H](C(=O)N[C@H](C(=O)N(C)C)C(C)(C)C)C(C)N(O)C=O (stereo partly drawn) [(R)-2-[1-(Formyl-hydroxy-amino)-ethyl]-hexanoic acid ((S)-1-dimethylcarbamoyl-2,2-dimethyl-propyl)-amide] | 600 nM
2 | CC#CC[C@H](CN(O)C=O)C(=O)N[C@H](C(=O)N(C)C)C(C)(C)C [(R)-2-[(Formyl-hydroxy-amino)-methyl]-hex-4-ynoic acid ((S)-1-dimethylcarbamoyl-2,2-dimethyl-propyl)-amide] | 30 nM
3 | C=CCC[C@H](CN(O)C=O)C(=O)N[C@H](C(=O)N(C)C)C(C)(C)C [(R)-2-[(Formyl-hydroxy-amino)-methyl]-hex-5-enoic acid ((S)-1-dimethylcarbamoyl-2,2-dimethyl-propyl)-amide] | 20 nM
4 | CCCCCCC[C@H](CN(O)C=O)C(=O)N[C@H](C(=O)N(C)C)C(C)(C)C [(R)-2-[(Formyl-hydroxy-amino)-methyl]-nonanoic acid ((S)-1-dimethylcarbamoyl-2,2-dimethyl-propyl)-amide] | 40 nM
5 | CCCCCC[C@H](CN(O)C=O)C(=O)N[C@H](C(=O)N(C)C)C(C)(C)C [(R)-2-[(Formyl-hydroxy-amino)-methyl]-octanoic acid ((S)-1-dimethylcarbamoyl-2,2-dimethyl-propyl)-amide] | 30 nM
6 | C=CC[C@H](CN(O)C=O)C(=O)N[C@H](C(=O)N(C)C)C(C)(C)C [(R)-2-[(Formyl-hydroxy-amino)-methyl]-pent-4-enoic acid ((S)-1-dimethylcarbamoyl-2,2-dimethyl-propyl)-amide] | 30 nM
7 | CC(C)[C@H](CN(O)C=O)C(=O)N[C@H](C(=O)N(C)C)C(C)(C)C [(R)-N-((S)-1-Dimethylcarbamoyl-2,2-dimethyl-propyl)-2-[(formyl-hydroxy-amino)-methyl]-3-methyl-butyramide] | 50 nM
8 | CN(C)C(=O)[C@@H](NC(=O)[C@H](Cc1ccccc1)CN(O)C=O)C(C)(C)C [(S)-2-[(R)-2-Benzyl-3-(formyl-hydroxy-amino)-propionylamino]-3,3,N,N-tetramethyl-butyramide] | 20 nM
9 | CN(C)C(=O)[C@@H](NC(=O)[C@H](CC1CCCCC1)CN(O)C=O)C(C)(C)C [(S)-2-[(R)-2-Cyclohexylmethyl-3-(formyl-hydroxy-amino)-propionylamino]-3,3,N,N-tetramethyl-butyramide] | 6 nM
10 | CN(C)C(=O)[C@@H](NC(=O)[C@@H](CN(O)C=O)C1CCCC1)C(C)(C)C [(S)-2-[(R)-2-Cyclopentyl-3-(formyl-hydroxy-amino)-propionylamino]-3,3,N,N-tetramethyl-butyramide] | 20 nM
11 | CN(C)C(=O)[C@@H](NC(=O)[C@@H](CN(O)C=O)CN1CCCCC1)C(C)(C)C [(S)-2-{(R)-2-[(Formyl-hydroxy-amino)-methyl]-3-piperidin-1-yl-propionylamino}-3,3,N,N-tetramethyl-butyramide] | > 1000 nM

More lines, in order of falling IC50, values ahead:

Row | IC50 | SMILES
12 | 100 nM | C[C@H](CN(O)C=O)C(=O)N[C@H](C(=O)N(C)C)C(C)(C)C [(S)-2-[(R)-3-(Formyl-hydroxy-amino)-2-methyl-propionylamino]-3,3,N,N-tetramethyl-butyramide]
13 | 70 nM | CC[C@H](CN(O)C=O)C(=O)N[C@H](C(=O)N(C)C)C(C)(C)C [(S)-2-{(R)-2-[(Formyl-hydroxy-amino)-methyl]-butyrylamino}-3,3,N,N-tetramethyl-butyramide]
14 | 50 nM | CCCCCCCC[C@H](CN(O)C=O)C(=O)N[C@H](C(=O)N(C)C)C(C)(C)C [(R)-2-[(Formyl-hydroxy-amino)-methyl]-decanoic acid [1-((S)-dimethyl-carbamoyl)-2,2-dimethyl-propyl]-amide]
15 | 50 nM | CCC[C@H](CN(O)C=O)C(=O)N[C@H](C(=O)N(C)C)C(C)(C)C [(R)-2-[(Formyl-hydroxy-amino)-methyl]-pentanoic acid ((S)-1-dimethylcarbamoyl-2,2-dimethyl-propyl)-amide]
16 | 20 nM | CC(C)CC[C@H](CN(O)C=O)C(=O)N[C@H](C(=O)N(C)C)C(C)(C)C [(R)-2-[(Formyl-hydroxy-amino)-methyl]-5-methyl-hexanoic acid ((S)-1-dimethylcarbamoyl-2,2-dimethyl-propyl)-amide]
17 | 20 nM | CCSC[C@H](CN(O)C=O)C(=O)N[C@H](C(=O)N(C)C)C(C)(C)C [(S)-2-[(R)-2-Ethylsulfanylmethyl-3-(formyl-hydroxy-amino)-propionylamino]-3,3,N,N-tetramethyl-butyramide]
18 | 10 nM | CC(C)C[C@H](CN(O)C=O)C(=O)N[C@H](C(=O)N(C)C)C(C)(C)C [(R)-2-[(Formyl-hydroxy-amino)-methyl]-4-methyl-pentanoic acid ((S)-1-dimethylcarbamoyl-2,2-dimethyl-propyl)-amide]
19 | 10 nM | CCCCC[C@H](CN(O)C=O)C(=O)N[C@H](C(=O)N(C)C)C(C)(C)C [(R)-2-[(Formyl-hydroxy-amino)-methyl]-heptanoic acid ((S)-1-dimethylcarbamoyl-2,2-dimethyl-propyl)-amide]
